Data on two substances can be found in patent US20250090629A1, “ALLEVIATING DRUG NEPHROTOXICITY” (The Trustees of Indiana University, priority 2021, published 2025).

Series [1] concerns uninephrectomy chronic kidney disease model in Munich Wister Fromter rats. Kind of series: Gentamicin induced nephrotoxicity in uninephrectomy chronic kidney disease rat model, with or without RAP. The settings on record: for Urinary protein: CKD pretreatment baseline 221±40; for Serum Cr: daily gentamicin 100 mg/kg intraperitoneal with RAP 40 mg/kg intravenous, p<0.01 vs without RAP. How it is done: Rats with a Chronic Kidney Disease (CKD) background were given either saline or 40 mg/kg RAP. […] Serum creatinine, an indicator of renal function, was measured in both rat populations at day 0, 3, 4, 5, and 6.

Series [2] deals with fluid phase and Megalin mediated clathrin mediated endocytosis in S1 and non-S1 proximal tubule segments. Nature of the series: Intra-vital 2-photon quantification of proximal tubule uptake of fluorescent endocytic markers after RAP or vehicle. It counts as in vivo, rat. How it is done: Rats were given either RAP or saline vehicle followed by a bolus containing a fluid phase endocytic marker (10,000 MW Cascade Blue Dextra, CB-dex) and a receptor mediated uptake marker (Texas Red Rat Serum Albumin, Rat Albumin). […] The results of this experiment are illustrated in FIG. 3. […] Ten minutes later, a bolus of Texas Red rat serum albumin (TR-RSA) and 10 kDa Cascade Blue dextran was given. […] Images collected from these studies at approximately 15, 30, and 60 minutes post initial infusion were quantified for TR-RSA and 10 kDa dextran uptake in either vehicle or RAP treated rats, in both S1 and non-S1 proximal tubule segments. Values were reported as normalized fluorescence, with the values normalized to the highest average value in the study group. […] The differences between vehicle and RAP treated were significant at all three time points studied and in both the S1 and non-S1 proximal tubule segments. […] The lower glomerular sieving coefficient of the RSA results in less RSA filtration and this a slower, protracted uptake that appears linear over time, with the S1 segment having the greatest accumulation.

Series [3] has the same test system. Described as above. It counts as in vivo, rat. This is another data set of the same source.
The mark [4] stands for this setting: RAP vs saline vehicle, 15', 30', 60' post bolus, S1 and non-S1 segments, FIG. 3.
The mark [5] stands for this setting: S1 segment, 60 minutes post initial bolus infusion, RAP 40 mg/Kg, FIG. 4B.
Where [6] appears, read: normal rats, over 60 minutes, RAP 40 mg/kg intravenous.

On to gentamicin [reference compound], for which the Urinary protein in series [1] (gentamicin without RAP) is reported as 2,512 mg/ml/100 μm wt.
As to “RAP: 39 kD protein, molecular chaperone for LDL receptor-related proteins such as Megalin; endocytosis inhibitor; SEQ ID NO 1-3 (human, rat, mouse)”, the “Serum creatinine (indicator of renal function), change over time” value in series [1] (CKD rats, RAP 40 mg/kg plus gentamicin 100 mg/kg intraperitoneal daily for five days, day 0, 3, 4, 5, 6, FIG. 1) is reported as “did not exhibit the same increase in serum creatinine”. Moreover, in series [1] (day 5), the “Serum Cr” value worked out at 1.4 ± 0.5 mg/dL. In addition, the “Serum Cr” value in series [1] (day 6) is 1.5 ± 0.5 mg/dL. The 24-hour creatinine clearance in series [1] (gentamicin with RAP, CKD pretreatment baseline 0.91=0.22 ml/min) came to 0.49 ± 0.16 mL/min. Also, in series [1] (gentamicin with RAP), the Urinary protein was 488 mg/ml/100 μm wt. In addition, in series [2] (setting [4]), the “10,000 MW Cascade Blue Dextran (CB-dex) proximal tubule uptake and accumulation” value is “reduction”; the “Texas Red Rat Serum Albumin proximal tubule uptake and accumulation” value is on record as “reduction”. Moreover, in series [2] (setting [5]), the “10 kDa dextran accumulation in single plane images” value is “only faint accumulation” and the “TR-RSA uptake in single plane images” value is reported as “virtually no uptake”. For the same substance, the “Reduction of 10 kDa Cascade Blue dextran uptake vs vehicle” value in series [2] (S1 segment, RAP 40 mg/Kg, FIG. 4C) is recorded as “over 5 fold”. In addition, in series [2] (about 15, 30 and 60 minutes, both S1 and non-S1 proximal tubule segments, FIG. 4E, 4F), the “RSA uptake (normalized fluorescence) compared to vehicle treated rats” value was “significantly reduced”. In series [2] (non-S1 proximal tubule segments, RAP 40 mg/Kg, FIG. 4D), the “Reduction of 10 kDa Cascade Blue dextran uptake vs vehicle” value was 2 fold. Besides, in series [2] (normal rats), the “Reversibility of the reduction of S1 proximal tubule uptake” value was “rapid fully reversible”. In addition, in series [2] (setting [6]), the “Reduction of S1 proximal tubule albumin uptake” value is on record as 80% and the “Reduction of S1 proximal tubule dextran uptake” value is on record as 67%. For the same substance, in series [2] (without causing lasting effects on kidney function), the “Nature of the inhibition of endocytosis” value was “temporary and reversible”. In addition, in series [3] (RAP 40 mg/kg vs saline vehicle, then single bolus of Texas Red Gentamicin, S1 and non-S1 proximal tubule segments, FIG. 2), the “Texas Red Gentamicin accumulation (average fluorescence intensity)” value is on record as “Decreased”. Also, in series [3] (setting [6]), the “Reduction of S1 proximal tubule gentamicin uptake” value came out at 62%.
